pIC50: −log10 of the molar value. ≈ marks a conversion by molar mass, not a printed value. Where “and” joins values, the source holds several entries; their conditions need not be identical. Equal entries are not always repeated. Where two headings read alike, the source gives them in different places.
How the values were obtained:
M. bovis BCG Pasteur = experiment: microbe, parasite or virus in culture; type: cell-based; conditions: for MIC: Mycobacterium tuberculosis variant bovis BCG, BCG; for MIC M. bovis BCG: SPOTi, 2 weeks at 37°C
[1] = tested on: murine macrophage cell line RAW264.7; experiment: Eukaryotic cell toxicity assay, RAW264.7; type: cell-based; conditions: Mus musculus; for pIC50: RAW264.7, value in square brackets
[2] = 336 h, read-out: MIC M. bovis BCG, SPOTi, 2 weeks at 37°C
[3] = read-out: MIC M. bovis BCG, SPOTi, value in square brackets
[4] = murine macrophage cell line RAW264.7, read-out: GIC50 RAW264.7
[5] = RAW264.7, read-out: GIC50 RAW264.7

| Structure (SMILES) | MIC (M. bovis BCG Pasteur; [2]) [µg/mL] | MIC (M. bovis BCG Pasteur; [3]) [µM] | pIC50 ([1]; read-out: GIC50 RAW264.7) | IC50 [1, 4] [µg/mL] | MIC M. bovis BCG (M. bovis BCG Pasteur) [µg/mL] | MIC (M. bovis BCG Pasteur; 336 h, read-out: MIC M. bovis BCG, SPOTi, value in square brackets) [µM] | IC50 [1, 5] |
| --- | --- | --- | --- | --- | --- | --- | --- |
| COc1ccc(C2NCCc3cc(O)c(O)cc32)cc1 (stereo not drawn) [Compound 5] | > 100 | > 369 | 3.47 | 91 | – | – | – |
| Oc1ccc(C2NCCc3cc(O)c(O)cc32)cc1 (stereo not drawn) [Compound 6] | > 100 | > 389 | 3.45 | 92 | – | – | – |
| C[C@@H]1NC(Cc2ccc3c(c2)OCO3)c2ccc(O)cc2[C@H]1O (stereo partly drawn) [Compound 25] | > 100 | > 319 | 3.24 | 181 | – | – | – |
| CN1C[C@H](O)c2cc(O)c(O)cc2[C@@H]1c1cccc2c1OCO2 [Compound 31] | > 100 | > 317 | 3.36 | 137 | – | – | – |
| CN1C[C@H](O)c2cc(O)c(O)cc2[C@H]1c1cccc2c1OCO2 [Compound 32] | > 100 | > 317 | 3.24 | 181 | – | – | – |
| CC(C)=CCC[C@H](C)CC1NCCc2cc(O)c(O)cc21 (stereo partly drawn) [Compound 13] | > 60 | 346 | < 3.06 | > 250 | 100 (≈ 346 µM) | – | – |
| O=C(O)[C@@H]1Cc2cc(O)c(O)cc2[C@@H](Cc2ccccc2)N1 [Compound 11] | > 100 | > 334 | 3.54 | 87 | – | – | – |
| Nc1ccc2c(c1)CCNC2Cc1ccccc1 (stereo not drawn) [Compound 15] | > 100 | > 420 | 3.10 | 188 | – | – | – |
| COc1ccc(CC2NCCc3cc(O)c(O)cc32)cc1OC (stereo not drawn) [Compound 18] | > 100 | > 317 | 3.75 | 56 | – | – | – |
| Oc1cc2c(cc1O)[C@@H](O)CN[C@H]2Cc1ccccc1 [Compound 10] | > 60 | – | – | – | 100 (≈ 369 µM) | 271 | > 250 µg/mL and > 566 µM |
| Oc1cc2c(cc1O)C(c1ccccn1)NCC2 (stereo not drawn) [Compound 4] | > 100 | > 413 | 3.61 | 60 | – | – | – |
| Oc1cc2c(cc1O)C(c1ccccc1O)NCC2 (stereo not drawn) [Compound 8] | > 100 | > 389 | 3.47 | 87 | – | – | – |
| OC[C@@H](O)[C@@H]1NCCc2cc(O)c(O)cc21 [Compound 14] | > 100 | > 444 | 3.42 | 85 | – | – | – |
| Oc1cc2c(cc1O)[C@@H](O)CNC2c1cccc2c1OCO2 (stereo partly drawn) [Compound 30] | > 100 | > 332 | 3.53 | 89 | – | – | – |
| CC1(C(=O)O)NCCc2cc(O)c(O)cc21 (stereo not drawn) [Compound 22] | > 100 | > 448 | 3.10 | 178 | – | – | – |
| Oc1cc2c(cc1O)C(Cc1ccccc1Br)NCC2 (stereo not drawn) [Compound 21] | > 100 | > 299 | 3.85 | 47 | – | – | – |
| Oc1cc2c(cc1O)C(c1cncc3ccccc13)NCC2 (stereo not drawn) [Compound 12] | > 100 | > 342 | < 3.07 | > 250 | – | – | – |
| O=C(O)[C@@H]1Cc2cc(O)c(O)cc2C(Cc2ccc3c(c2)OCO3)N1 (stereo partly drawn) [Compound 26] | > 100 | > 291 | 3.27 | 183 | – | – | – |
| Oc1cc2c(cc1O)C(c1cccs1)NCC2 (stereo not drawn) [Compound 9] | > 100 | > 404 | – | – | – | – | 56 µg/mL and 226 µM |
| COc1cc(CC2NCCc3cc(O)c(O)cc32)ccc1O (stereo not drawn) [Compound 19] | > 100 | > 332 | 3.78 | 50 | – | – | – |
| Oc1ccc2c(c1)CCNC2Cc1ccccc1 (stereo not drawn) [Compound 16] | > 60 | 418 | 3.17 | 195 | 100 (≈ 418 µM) | – | – |
| Oc1cccc(CC2NCCc3cc(O)c(O)cc32)c1 (stereo not drawn) [Compound 17] | > 100 | > 369 | 3.63 | 64 | – | – | – |
| Oc1cc2c(cc1O)C(Cc1ccccc1)NCC2 (stereo not drawn) [Compound 3] | > 100 | > 392 | 3.50 | 81 | – | – | – |
